Patent publication US8952024B2, “Herbicidal pyrimidone derivatives” (E I du Pont de Nemours and Company, priority 2009, dated 2015)

What was measured:
Assay in all cases: Test B pre-/postemergence plant response
Type in all cases: in vivo
[1] = test system: large crabgrass (Digitaria sanguinalis)
In short: (§1)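 Ratings reflect visual comparison with untreated controls 13 to 15 days after application, from 0 (no effect) to 100 (complete control). Application was preemergence to seeded loam/sand soil or postemergence to 1- to 4-leaf plants, with compound in a non-phytotoxic, surfactant-containing solvent.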

[2] = test system: Surinam grass (Brachiaria decumbens)
In short: as §1

[3] = test system: pigweed (Amaranthus retroflexus)
In short: as §1

[4] = test system: galium (catchweed bedstraw, Galium aparine); conditions: Preemergence
In short: as §1

[5] = test system: woolly cupgrass (Eriochloa villosa)
In short: as §1

[6] = test system: lambsquarters (Chenopodium album)
In short: as §1

corn (Zea mays) = test system: corn (Zea mays)
In short: as §1

[7] = test system: nightshade (eastern black nightshade, Solanum ptycanthum); conditions: Preemergence
In short: as §1

[8] = test system: Italian ryegrass (Lolium multiflorum)
In short: as §1

[9] = test system: sunflower (common oilseed sunflower, Helianthus annuus); conditions: Preemergence
In short: as §1

[10] = test system: goosegrass (Eleusine indica)
In short: as §1

[11] = test system: goosegrass (Eleusine indica); conditions: Preemergence, 62 g ai/ha; scale 0 to 100, 0 no effect, 100 complete control
[12] = 250 g ai/ha, Preemergence, 0 to 100 scale
[13] = Postemergence, 31 g ai/ha, scale 0 to 100 (0 no effect, 100 complete control)
[14] = Postemergence, 62 g ai/ha, scale 0 (no effect) to 100 (complete control), 13 to 15 days
[15] = Postemergence, 125 g ai/ha, visual rating after 13 to 15 days, scale 0 (no effect) to 100 (complete control)
[16] = Postemergence, 250 g ai/ha, scale 0 to 100
[17] = Preemergence, 31 g ai/ha, scale 0 to 100 (0 no effect, 100 complete control)
[18] = Preemergence, 62 g ai/ha, scale 0 to 100, 0 no effect, 100 complete control
[19] = Preemergence, 125 g ai/ha, 0 to 100 scale
[20] = 31 g ai/ha, scale 0 to 100 (0 no effect, 100 complete control)
[21] = 62 g ai/ha, scale 0 to 100, 0 no effect, 100 complete control

2-(3,5-difluorophenyl)-5-[(2-hydroxy-4-oxobicyclo[3.2.1]oct-2-en-3-yl)carbonyl]-3-(2-methoxyethyl)-4(3H)-pyrimidinone [Compound 243]
Plant response rating, Crabgrass, Large [1, 12]: 100 | Plant response rating, Crabgrass, Large [1, 13]: 70 | Plant response rating, Crabgrass, Large [1, 14]: 80 | Plant response rating, Crabgrass, Large [1, 15]: 85 | Crabgrass, Large plant response rating [1, 16]: 95 | Plant response rating, Crabgrass, Large [1, 17]: 0 | Plant response rating, Crabgrass, Large [1, 18]: 90 | Crabgrass, Large plant response rating [1, 19]: 100 | Plant response rating, Surinam Grass [2, 12]: 95 | Plant response rating, Surinam Grass [2, 13]: 55 | Plant response rating, Surinam Grass [2, 14]: 65 | Plant response rating, Surinam Grass [2, 15]: 75 | Surinam Grass plant response rating [2, 16]: 85 | Plant response rating, Surinam Grass [2, 17]: 0 | Plant response rating, Surinam Grass [2, 18]: 45 | Surinam Grass plant response rating [2, 19]: 95 | Plant response rating, Pigweed [3, 12]: 100 | Plant response rating, Pigweed [3, 13]: 80 | Plant response rating, Pigweed [3, 14]: 85 | Plant response rating, Pigweed [3, 15]: 100 | Pigweed plant response rating [3, 16]: 100 | Plant response rating, Pigweed [3, 17]: 50 | Plant response rating, Pigweed [3, 18]: 100 | Pigweed plant response rating [3, 19]: 100 | Plant response rating, Galium ([4]; 250 g ai/ha, 0 to 100 scale): 95 | Plant response rating, Galium [4, 20]: 0 | Plant response rating, Galium [4, 21]: 40 | Galium plant response rating ([4]; 125 g ai/ha, 0 to 100 scale): 60 | Plant response rating, Cupgrass, Woolly [5, 12]: 60 | Plant response rating, Cupgrass, Woolly [5, 13]: 70 | Plant response rating, Cupgrass, Woolly [5, 14]: 75 | Plant response rating, Cupgrass, Woolly [5, 15]: 80 | Cupgrass, Woolly plant response rating [5, 16]: 85 | Plant response rating, Cupgrass, Woolly [5, 17]: 0 | Plant response rating, Cupgrass, Woolly [5, 18]: 15 | Cupgrass, Woolly plant response rating [5, 19]: 45 | Plant response rating, Lambsquarters [6, 12]: 100 | Plant response rating, Lambsquarters [6, 13]: 75 | Plant response rating, Lambsquarters [6, 14]: 80 | Plant response rating, Lambsquarters [6, 15]: 80 | Lambsquarters plant response rating [6, 16]: 95 | Plant response rating, Lambsquarters [6, 17]: 100 | Plant response rating, Lambsquarters [6, 18]: 100 | Lambsquarters plant response rating [6, 19]: 100 | Plant response rating, Corn (corn (Zea mays); [12]): 10 | Plant response rating, Corn (corn (Zea mays); [13]): 15 | Plant response rating, Corn (corn (Zea mays); [14]): 45 | Plant response rating, Corn (corn (Zea mays); [15]): 75 | Corn plant response rating (corn (Zea mays); [16]): 80 | Plant response rating, Corn (corn (Zea mays); [17]): 0 | Plant response rating, Corn (corn (Zea mays); [18]): 0 | Corn plant response rating (corn (Zea mays); [19]): 0 | Plant response rating, Nightshade ([7]; 250 g ai/ha, 0 to 100 scale): 100 | Plant response rating, Nightshade [7, 20]: 100 | Plant response rating, Nightshade [7, 21]: 100 | Nightshade plant response rating ([7]; 125 g ai/ha, 0 to 100 scale): 100 | Plant response rating, Ryegrass, Italian [8, 12]: 40 | Plant response rating, Ryegrass, Italian [8, 13]: 0 | Plant response rating, Ryegrass, Italian [8, 14]: 0 | Plant response rating, Ryegrass, Italian [8, 15]: 30 | Ryegrass, Italian plant response rating [8, 16]: 45 | Plant response rating, Ryegrass, Italian [8, 17]: 0 | Plant response rating, Ryegrass, Italian [8, 18]: 0 | Ryegrass, Italian plant response rating [8, 19]: 0 | Plant response rating, Sunflower ([9]; 250 g ai/ha, 0 to 100 scale): 98 | Plant response rating, Sunflower [9, 20]: 45 | Plant response rating, Sunflower [9, 21]: 85 | Sunflower plant response rating ([9]; 125 g ai/ha, 0 to 100 scale): 95 | Plant response rating, Goosegrass [10, 12]: 100 | Plant response rating, Goosegrass [10, 13]: 60 | Plant response rating, Goosegrass [10, 14]: 85 | Plant response rating, Goosegrass [10, 15]: 90 | Goosegrass plant response rating [10, 16]: 100 | Plant response rating, Goosegrass [10, 17]: 75 | Goosegrass plant response rating [10, 19]: 100 | Plant response rating, Goosegrass [11]: 98
